The text below walks through data of US11685785B2, “Methods and antibodies for modulation of immunoresponse” (Ascendo Biotechnology, Inc., priority 2015, dated 2023).

This experiment relates to LPS-primed monocytes. Description: Surface molecule expression on LPS-primed human monocytes (flow cytometry). Conditions: LPS 100 ng/ml, 18 hr, 10 μM compound vs DMSO control; flow cytometry MFI. Type of experiment: cell-based. On the procedure: Human monocytes were stimulated with LPS (100 ng/ml) in the presence of either an isotype control IgG, or anti-CD11b antibody (ICRF44) for 18 hr. The cells were harvested and HLA-DR, PD-L1, CD80 and CD86 molecules were analyzed using flow cytometry. Surface molecule expression is presented as the MFI. Values are presented as the mean±SEM from 3 independent experiments.
FIGS. 2 A and B show the effect of cell adhesion to fibrinogen and reduction of PD-L1 expression by binding CD11b, respectively. […] 25000 of K562/CD11b cells adhered to the bottom of fibrinogen (20 μg/ml)-coated wells in the presence of 10 μM ML-C19-A or DMSO at 37° C. for 20 min. The results were quantitated by luciferase-based CellTiter-Glo (Promega CO.). Each bar represents mean±SEM of triplicate determinations from a representative experiment. […] Human monocytes were stimulated with LPS (100 ng/ml) in the presence of either DMSO control or 10 μM of ML-C19-A for 18 hr. The cells were harvested and PD-L1 molecules were analyzed using flow cytometry. Surface molecule expression is presented as the MFI. Values are presented as the mean±SEM from 10 independent experiments.
Primed-monocytes were incubated in the presence of either an isotype control IgG, anti-CD11b antibody (ICRF44) or humanized anti-CD11b antibodies for 18 hr. The cells were harvested and PD-L1 expression on monocytes was analyzed using flow cytometry. […]
In general terms: In flow cytometry, cells or beads pass a laser one at a time.

Consider `NS(=O)(=O)c1ccc(N2C(=O)c3cccc4cccc(c34)C2=O)cc1` [ML-C19-A], for which the “PD-L1 expression in LPS-primed monocytes” value is reported as “inhibitory”.
